Where two headings read alike, the source gives them in different places.
Test system: Mycosphaerella graminicola; Anamorph: Septoria tritici; Bayer Code SEPTTR
Test: Leaf blotch of wheat, foliar fungicide treatment, one day protectant (1DP) or three day curative (3DC)
Type: in vivo, Septoria tritici on wheat plants (variety Yuma)
Details: Zymoseptoria tritici, percent disease control rating
[1] = 24 h, one day protectant (1DP), read-out: SETTTR 1DP 25 ppm
[2] = 24 h, one day protectant (1DP), read-out: SEPTTR 1DP 100 ppm
[3] = 72 h, three day curative (3DC), read-out: SEPTTR 3DC 25 ppm
[4] = 72 h, three day curative (3DC), read-out: SEPTTR 3DC 100 ppm

Structure (SMILES)	pest or weed control at 25 ppm [1] [%]	pest or weed control at 100 ppm [2] [%]	pest or weed control at 25 ppm [3] [%]	pest or weed control at 100 ppm [4] [%]
Nc1nc(OCc2cccc(Br)c2)ncc1F [Compound 2, 2-(3-Bromobenzyloxy)-5-fluoropyrimidin-4-ylamine]	76 to 100	76 to 100	76 to 100	76 to 100
CC(=O)Nc1nc(OCc2cccs2)ncc1F [Compound 6, N-[5-Fluoro-2-(thiophen-2-ylmethoxy)pyrimidin-4-yl]acetamide]	76 to 100	76 to 100	76 to 100	76 to 100
CC[Si](CC)(CC)Nc1nc(OCc2ccc(F)cc2)ncc1F [Compound 8, [5-Fluoro-2-(4-fluorobenzyloxy)pyrimidin-4-yl]triethylsilanylamine]	76 to 100	76 to 100	76 to 100	76 to 100
O=C(Nc1nc(OCc2ccc(F)cc2)ncc1F)c1snc(Cl)c1Cl [Compound 12, 3,4-Dichloroisothiazole-5-carboxylic acid [5-fluoro-2-(4-fluorobenzyl-oxy)pyrimidin-4-yl]amide]	76 to 100	76 to 100	76 to 100	76 to 100
Cc1ccc(COc2ncc(F)c(NCO)n2)cc1 [Compound 16, [5-Fluoro-2-(4-methylbenzyloxy)pyrimidin-4-ylamino]methanol]	76 to 100	76 to 100	76 to 100	76 to 100
OCNc1nc(OCc2ccc(F)cc2)ncc1F [Compound 17]	76 to 100	76 to 100	76 to 100	76 to 100
Fc1ccc(COc2ncc(F)c(NCOCc3ccccc3)n2)cc1 [Compound 18, Benzyloxymethyl[5-fluoro-2-(4-fluorobenzyloxy)pyrimidin-4-yl]amine]	51 to 75	76 to 100	51 to 75	51 to 75
CC(C)(C)C(=O)OCNc1nc(OCc2ccc(F)cc2)ncc1F [Compound 19, 2,2-Dimethylpropionic acid[5-fluoro-2-(4-fluorobenzyloxy)pyrimidin-4-ylamino]methyl ester]	76 to 100	76 to 100	51 to 75	76 to 100
Fc1ccc(COc2ncc(F)c(/N=C/N3CCCC3)n2)cc1 [Compound 21, [5-Fluoro-2-(4-fluorobenzyloxy)pyrimidin-4-yl]-[1-pyrrolidin-1-yl-methylidene]amine]	76 to 100	76 to 100	76 to 100	76 to 100
O/N=C\Nc1nc(OCc2ccc(F)cc2)ncc1F [Compound 22, N-[5-Fluoro-2-(4-fluorobenzyloxy)pyrimidin-4-yl]-N′-hydroxy-formamidine]	76 to 100	76 to 100	76 to 100	76 to 100
CN(C)/C=N/c1nc(O)ncc1F [Compound 25, N′-(5-Fluoro-2-hydroxy-pyrimidin-4-yl)-N,N-dimethyl-formamidine]	76 to 100	76 to 100	76 to 100	76 to 100
CCOC(=O)Oc1ncc(F)c(/N=C/N(C)C)n1 [Compound 26, Carbonic acid 4-(dimethylamino-methyleneamino)-5-fluoropyrimidin-2-yl ester ethyl ester]	76 to 100	76 to 100	76 to 100	76 to 100
CN(C)/C=N/c1nc(OC(=O)c2ccccc2)ncc1F [Compound 27, Benzoic acid 4-(dimethylamino-methyleneamino)-5-fluoropyrimidin-2-yl ester]	76 to 100	76 to 100	76 to 100	76 to 100
CN(C)/C=N/c1nc(OS(=O)(=O)c2ccccc2)ncc1F [Compound 28, Benzenesulfonic acid 4-(dimethylamino-methyleneamino)-5-fluoro-pyrimidin-2-yl ester]	76 to 100	76 to 100	76 to 100	76 to 100
Nc1nc(OS(=O)(=O)c2ccccc2)ncc1F [Compound 29, Benzenesulfonic acid 4-amino-5-fluoropyrimidin-2-yl ester]	76 to 100	76 to 100	51 to 75	76 to 100
Fc1ccc(COc2ncc(F)c(NCc3ccccc3F)n2)cc1 [Compound 30, (2-Fluorobenzyl)-[5-fluoro-2-(4-fluorobenzyloxy)pyrimidin-4-yl]amine]	51 to 75	76 to 100	51 to 75	76 to 100
COc1ccc(N(N)c2nc(OCc3cccc(OC)c3)ncc2F)cc1 [Compound 31, 5-Fluoro-2-(3-methoxybenzyloxy)-4-(1-(4-methoxyphenyl)-hydrazinyl)pyrimidine]	0 to 25	0 to 25	0 to 25	0 to 25

Structure (SMILES)	pest or weed control at 25 ppm [1] [%]	pest or weed control at 100 ppm [2] [%]	pest or weed control at 25 ppm [3] [%]	pest or weed control at 100 ppm [4] [%]
C=CCONc1nc(OCc2cccc(OC)c2)ncc1F [Compound 32, O-Allyl-N-(5-fluoro-2-(3-methoxybenzyloxy)pyrimidin-4-yl)hydroxylamine]	26 to 50	76 to 100	0 to 25	76 to 100
N#Cc1cccc(COc2ncc(F)c(N)n2)c1 [Compound 33]	76 to 100	76 to 100	76 to 100	76 to 100
N#Cc1cccc(COc2ncc(F)c(NC(=O)NCc3ccccc3F)n2)c1 [Compound 34, 1-[2-(3-Cyanobenzyloxy)-5-fluoropyrimidin-4-yl]-3-(2-fluorobenzyl)urea]	0 to 25	0 to 25	0 to 25	0 to 25
CCCNC(=S)Nc1nc(OCc2ccc(F)cc2)ncc1F [Compound 37]	76 to 100	76 to 100	76 to 100	76 to 100
Cc1ccc(COc2ncc(F)c(NS(C)(=O)=O)n2)cc1 [Compound 38, N-[5-Fluoro-2-(4-methylbenzyloxy)pyrimidin-4-yl]methanesulfonamide]	26 to 50	26 to 50	0 to 25	26 to 50
O=[N+]([O-])c1ccccc1SNc1nc(OCc2ccc(F)cc2)ncc1F [Compound 39, N-[5-Fluoro-2-(4-fluorobenzyloxy)-pyrimidin-4-yl]-S-(2-nitrophenyl)-thiohydroxylamine]	76 to 100	76 to 100	0 to 25	0 to 25
COc1cccc(COc2ncc(F)c(NS(N)(=O)=O)n2)c1 [Compound 43, [5-Fluoro-2-(3-methoxybenzyloxy)pyrimidin-4-yl]sulfamide]	26 to 50	51 to 75	51 to 75	51 to 75
COc1cccc(COc2ncc(F)c(NN)n2)c1 [Compound 44, 5-Fluoro-4-hydrazinyl-2-(3-methoxybenzyloxy)pyrimidine]	0 to 25	76 to 100	51 to 75	76 to 100
COc1cccc(COc2ncc(F)c(N/N=C/c3cccs3)n2)c1 [Compound 45, (E)-5-Fluoro-2-(3-methoxybenzyloxy)-4-(2-(thiophen-2-ylmethylene)-hydrazinyl)pyrimidine]	51 to 75	76 to 100	26 to 50	26 to 50
CCCNC(=S)Nc1nc(OCc2ccc(C)cc2)ncc1F [Compound 48]	76 to 100	76 to 100	76 to 100	76 to 100
CN(Oc1ncc(F)c(N)n1)C(=O)OC(C)(C)C [Compound 50, O-(4-Amino-5-fluoropyrimidin-2-yl)-t-butyl N-methyl-N-hydroxycarbamate]	26 to 50	76 to 100	26 to 50	76 to 100
CC(=O)Nc1nc(OCc2ccc(F)cc2)ncc1F [Compound 52]	76 to 100	76 to 100	51 to 75	51 to 75
CC(=S)Nc1nc(OCc2ccc(F)cc2)ncc1F [Compound 53, N-(5-Fluoro-2-(4-fluorobenzyloxy)pyrimidin-4-yl)ethanethioamide]	76 to 100	76 to 100	76 to 100	76 to 100
COc1cccc(COc2ncc(F)c(NC(=S)NCc3ccccc3F)n2)c1 [Compound 54]	51 to 75	76 to 100	0 to 25	0 to 25
Cn1ccc(COc2ncc(F)c(N)n2)n1 [Compound 55]	76 to 100	76 to 100	76 to 100	76 to 100
CC(Oc1ncc(F)c(N)n1)c1ccc2ccccc2c1 (stereo not drawn) [Compound 57]	76 to 100	76 to 100	76 to 100	76 to 100

From patent US9204653B2, “5-fluoro pyrimidine derivatives” (DOW AGROSCIENCES LLC, priority 2008, dated 2015)
